# According to patent US20240033319A1, “PEPTIDES FOR PREVENTING OR TREATING HEART AND BLOOD VESSEL DISEASES” (RD NÉPHROLOGIE, priority 2020, published 2024):
# No end group written: not given here.
# Legend:
# [1] = tested on: human aortic smooth muscle cells (hAoSMCs); assay: Calcification of cultivated human aortic smooth muscle cells in calcifying medium (Ca2+ content); type: cell-based; conditions: for effect on calcium content / calcification of hAoSMCs: peptide fragment 100 nmol L^−1, 7 days
# Protocol: Cell culture and calcification induction in human aortic smooth muscle cells: Human aortic smooth muscle cells (hAoSMCs) (Promocell, Heidelberg, Germany) were cultivated in smooth muscle cell medium (Promocell, Heidelberg, Germany). The hAoSMCs were seeded in 48 well plates (5×10^3 cells/well) at 80% confluence. Dulbecco's modified Eagle's medium (DMEM) containing 25 mmol L^−1 glucose supplemented with 2.5% fetal calf serum and 2.8 mmol L^−1 phosphate were used to induce calcification (calcifying medium, CM). The calcifying medium was supplemented with CBF (max. concentration 100 pmol L^−1) or CBF fragments (100 nmol L^−1). As reference medium, DMEM containing 25 mmol L^−1 glucose supplemented with 2.5% fetal calf serum and 0.9 mmol L^−1 phosphate were used (non-calcifying medium, NCM). The hAoSMCs were incubated for 7 days while the incubation medium was replaced after 48 h.
# Measurement of calcium content: For determination of calcium content, cells or aortic rings were washed 3 times with PBS without calcium. Aortic rings were dried and weighed. Dried aortic rings and cells were decalcified with 0.1 M HCl for 24 h, and the calcium content in the supernatant was determined by the o-cresolphthalein complexone method (Clinical Chemistry Assay Kit/Calcium, County Antrim, UK) according to the manufacturer's protocol. Cell content was extracted in 0.1 M NaOH 0.1% sodium dodecyl sulfate (SDS), and protein content was measured by the bicinchoninic acid (BCA) protein assay method (Thermo Fisher Scientific, Germany). The calcium content was normalized to total protein for cells or dry weight for aortic rings.
# [2] = tested on: VDN rats; assay: VDN (vitamin D3 plus nicotine) rat model of elastocalcinosis: aortic calcium, von Kossa staining, pulse pressure; type: in vivo; conditions: for pulse pressure (Example 3 peptide comparison) / calcified surface of the aortas, Von Kossa staining (Example 3 peptide comparison) / calcium content of the aortas (Example 3 peptide comparison): VDN animals, versus control animals; for pulse pressure (Example 3 peptide comparison): FIG. 5a; for calcified surface of the aortas, Von Kossa staining (Example 3 peptide comparison): FIG. 5b; for calcium content of the aortas (Example 3 peptide comparison): FIG. 5c
# Protocol: Ex vivo and calcification of rat aortic rings: The thoracic aorta of 8-13 weeks old male Wistar-rats were gently dissected and were cut in 3-4 mm segments. The endothelial layer of the aortic ring was manually damaged by scratching using a conventional pipette tip. The aortic rings were incubated with DMEM containing 25 mmol L^−1 glucose supplemented with 2.5% fetal calf serum and 2.8 mmol L^−1 phosphate to induce calcification. The calcification medium was supplemented with CBF (max. concentration 1 μmol L^−1) or CBF fragments (100 nmol L^−1). As reference medium, DMEM containing 25 mmol L^−1 glucose supplemented with 2.5% fetal calf serum and 0.9 mmol L^−1 phosphate were used (non-calcifying medium, NCM). The aortic rings were incubated for 7 days while the medium was replaced after 48 h. Effect of CBF in an animal model with enhanced arterial calcification: An animal model of elastocalcinosis with proven increased arterial calcification (Niederhoffer et al., “Aortic calcification produced by vitmin D3 plus nicotine”, J. Vasc. Res. 34, 386-98, 1997) was chosen to assay the effects of CBF in vivo. Animal experiments were approved by the regional ethics committee “Comité d'éthique pour I'expérimentation animale Languedoc Roussillon N°36”, with the agreement number APAFIS 2018072715539434#17270v4, and conformed to the Guide for the Care and Use of Laboratory Animals, NIH (National Academies Press US, 8th edition, 2011). Three groups of 6 weeks old Wistar rats (Charles River Laboratories, L'Arbresle, France) were given a regular rat chow (A04, Safe, Villemoisson-sur-Orge, France) and spring water (Mont Roucous®, France; calcium 60 μM) ad libitum for one week before experiments. Two groups received CBF (31 μg kg^−1 per day) or its vehicle (saline) infused through an osmotic pump (Alzet 2004, Charles River, France) implanted under the skin. CBF treatment was initiated 3 or 4 days before induction of elastocalcinosis (vitamin D3 plus nicotine, or VDN rats) with a single injection of vitamin D3 (300,000 IU kg^−1, i.m.) and two gavages of nicotine (25 mg kg^−1, 5 ml kg^−1) on the same day, as previously described ^47.
# Untreated rats served as control rats (sham operation and saline administration). Four weeks later, rats were anaesthetized (ketamine-xylazine), and a catheter was inserted into the right carotid artery for blood pressure measurement. After 10-15 min of equilibration, systolic, diastolic, mean arterial, and pulse (systolic-diastolic) pressures were determined. The aorta was gently dissected, adventitial fat removed, and cut into segments (3-4 mm) for further analysis.
# Histological calcification staining and immunofluorescence staining: Aortic rings were placed in 1 ml of 4% formaldehyde for 1 h to prepare for histological and immunohistochemical staining. The rings were dehydrated and embedded in paraffin and 5 μm slices were prepared by a microtome (Leica RM 2250, Wetzlar, Germany). The slices were placed on a glass slide, deparaffinized in xylene, and dehydrated in decreasingly concentrated sopropanol solutions before staining. Von Kossa staining was performed to visualize calcified areas of the aortic rings. The aortic ring slides were incubated with 5% silver nitrate in the presence of UV light at 405 nm for 1 h, washed three times with double-distilled water (ddH2O), incubated in the presence of 5% sodium thiosulfate in water for 1 min, and washed three times with ddH2O. Next, nuclear fast red (Merck; Darmstadt, Germany) was added to the slides for 5 min. The slides were then rinsed, dehydrated with ethanol, incubated for 5 min in xylol, and covered with Vitro-Clud (R. Langenbrinck; Emmendingen, Germany). For immunohistochemical analyses, sections were blocked with blocking solution (1% bovine serum albumin (BSA)) for 30 min at room temperature. […]
# [3] = tested on: rat aortic rings; conditions: for effect on calcium content / calcification of rat aortic rings: peptide fragment 100 nmol L^−1, 7 days
Substance,effect on calcium content / calcification of hAoSMCs [1],effect on calcium content / calcification of rat aortic rings ([3]; calcifying medium),other results
CBF2: CBF fragment comprising the amino acids 11-19 (RDSSMKLSF; listed as Homo sapiens),no significant effect,no significant effect,"pulse pressure (Example 3 peptide comparison) [2]: no effect; calcified surface of the aortas, Von Kossa staining (Example 3 peptide comparison) [2]: no effect; calcium content of the aortas (Example 3 peptide comparison) [2]: no effect"
EEDN (listed as Homo sapiens) [CBF 07-10],inhibitory effect on vascular calcification,inhibitory effect on vascular calcification,
EEED (listed as Homo sapiens) [CBF 06-09],strongest inhibition,strongest inhibition,
EEEDN (listed as Homo sapiens) [CBF 06-10],significant reduction of calcification,significant reduction of calcification,
EEEDN RDSSM (EEEDNRDSSM; listed as Homo sapiens) [CBF fragment 06-15],no significant effect,no significant effect,
EEEE (listed as Homo sapiens) [CBF 05-08],strongest inhibition,strongest inhibition,
EGQE (listed as Homo sapiens) [CBF 02-05],inhibitory effect on vascular calcification,inhibitory effect on vascular calcification,
GQEE (listed as Homo sapiens) [CBF 03-06],inhibitory effect on vascular calcification,inhibitory effect on vascular calcification,
LEGQ (listed as Homo sapiens) [CBF 01-04],inhibitory effect on vascular calcification,inhibitory effect on vascular calcification,
LEGQE (listed as Homo sapiens) [CBF 01-05],significant reduction of calcification,significant reduction of calcification,
LEGQE EEEDN (LEGQEEEEDN; listed as Homo sapiens) [CBF1],significantly decreased the calcium content,significantly decreased the calcium content,"calcified surface of the aortas, Von Kossa staining (Example 3 peptide comparison) [2]: even more pronounced decrease; calcium content of the aortas (Example 3 peptide comparison) [2]: even more pronounced decrease"
"LEGQEEEEDNRDSSMKLSF [CBF, LEGQE EEEDN RDSSM KLSF]",,,"threshold concentration for decreasing calcification in hAoSMCs ([1]; hAoSMCs, 7 days, Ca2+ content): ~1 amol L^−1; Ca2+ content in vessels of treated VDN rats compared to untreated animals ([2]; 31 μg kg^−1 per day via osmotic pump for 4 weeks): significantly reduced; pulse pressure (Example 3 peptide comparison) [2]: significantly lower pulse pressure; calcified surface of the aortas, Von Kossa staining (Example 3 peptide comparison) [2]: decreased calcified surface; calcium content of the aortas (Example 3 peptide comparison) [2]: decrease in calcium content; reduction of pulse pressure ([2]; VDN rats, 31 μg kg^−1 per day for 4 weeks): 63%; decrease of calcified surface of aorta (von Kossa staining) ([2]; VDN rats, 31 μg kg^−1 per day via osmotic pump for 4 weeks): 70%; pulse pressure ([2]; VDN rats, chronic treatment 4 weeks, untreated VDN 81±6): 53±3; arterial pressure in VDN animals ([2]; chronic treatment in vivo, 4 weeks): significant decrease; EC50 [3]: ~100 pM; threshold concentration for reducing calcification of rat aortic rings ([3]; aortic rings ex vivo, calcifying medium, 7 days, Ca content): ~0.01 nmol/L; reduction in the calcified area of aortic rings (von Kossa staining) ([3]; calcifying medium, CBF 100 nM): 40%"
QEEE (listed as Homo sapiens) [CBF 04-07],strongest inhibition,strongest inhibition,
